From ChEMBL document CHEMBL5653631, “A Potent and Selective ULK1 Inhibitor Suppresses Autophagy and Sensitizes Cancer Cells to Nutrient Stress” (iScience, 2018) come the findings set out here.

Molecules are shown by their SMILES.

Experiment [1] has as its target Tyrosine-protein kinase Fer (Homo sapiens) (UniProt P16591). Kind of experiment: Inhibition of human recombinant FER at 40 nM in presence of ATP by radiometric assay relative to control.
Experiment [2] addresses Eukaryotic translation initiation factor 2-alpha kinase 1 (Homo sapiens) (UniProt Q9BQI3). Put plainly: Inhibition of human recombinant HRI at 40 nM related to control ULK1.
The target in experiment [3] is Protein-tyrosine kinase 2-beta (Homo sapiens) (UniProt Q14289). Put plainly: Inhibition of human recombinant PYK2 at 40 nM in presence of ATP by radiometric assay relative to control.
Protein-tyrosine kinase 2-beta (Homo sapiens), sequence (Q14289 whole entry, looked up): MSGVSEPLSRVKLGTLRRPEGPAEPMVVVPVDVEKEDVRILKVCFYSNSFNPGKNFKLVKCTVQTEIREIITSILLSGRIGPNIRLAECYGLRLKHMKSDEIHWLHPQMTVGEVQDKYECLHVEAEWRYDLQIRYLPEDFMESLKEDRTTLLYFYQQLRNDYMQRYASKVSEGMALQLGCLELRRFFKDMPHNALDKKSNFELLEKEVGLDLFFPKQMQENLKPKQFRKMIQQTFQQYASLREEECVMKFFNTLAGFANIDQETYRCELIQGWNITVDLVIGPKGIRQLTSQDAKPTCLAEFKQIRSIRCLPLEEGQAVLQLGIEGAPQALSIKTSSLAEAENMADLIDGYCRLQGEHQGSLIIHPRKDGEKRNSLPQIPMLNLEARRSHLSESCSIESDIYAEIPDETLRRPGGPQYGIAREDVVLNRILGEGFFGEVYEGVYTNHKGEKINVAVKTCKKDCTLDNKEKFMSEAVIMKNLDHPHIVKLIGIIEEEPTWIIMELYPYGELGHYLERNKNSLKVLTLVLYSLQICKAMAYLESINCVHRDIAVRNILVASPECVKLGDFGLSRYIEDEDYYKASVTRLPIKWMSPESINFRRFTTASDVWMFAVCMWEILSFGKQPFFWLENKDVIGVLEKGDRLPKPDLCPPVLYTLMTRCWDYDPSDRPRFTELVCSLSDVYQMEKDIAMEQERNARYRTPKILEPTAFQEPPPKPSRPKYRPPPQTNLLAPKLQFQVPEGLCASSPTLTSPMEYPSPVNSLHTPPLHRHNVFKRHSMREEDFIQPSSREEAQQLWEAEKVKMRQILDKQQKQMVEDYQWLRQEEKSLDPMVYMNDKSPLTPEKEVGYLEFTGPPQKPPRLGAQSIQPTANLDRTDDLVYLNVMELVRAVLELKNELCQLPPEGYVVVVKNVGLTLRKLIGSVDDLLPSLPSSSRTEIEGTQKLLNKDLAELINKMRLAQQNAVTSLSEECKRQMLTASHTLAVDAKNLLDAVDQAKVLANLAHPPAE
Experiment [4] concerns the target T1, Homeodomain-interacting protein kinase 4 (Homo sapiens) (UniProt Q8NE63).
T1 sequence (whole entry): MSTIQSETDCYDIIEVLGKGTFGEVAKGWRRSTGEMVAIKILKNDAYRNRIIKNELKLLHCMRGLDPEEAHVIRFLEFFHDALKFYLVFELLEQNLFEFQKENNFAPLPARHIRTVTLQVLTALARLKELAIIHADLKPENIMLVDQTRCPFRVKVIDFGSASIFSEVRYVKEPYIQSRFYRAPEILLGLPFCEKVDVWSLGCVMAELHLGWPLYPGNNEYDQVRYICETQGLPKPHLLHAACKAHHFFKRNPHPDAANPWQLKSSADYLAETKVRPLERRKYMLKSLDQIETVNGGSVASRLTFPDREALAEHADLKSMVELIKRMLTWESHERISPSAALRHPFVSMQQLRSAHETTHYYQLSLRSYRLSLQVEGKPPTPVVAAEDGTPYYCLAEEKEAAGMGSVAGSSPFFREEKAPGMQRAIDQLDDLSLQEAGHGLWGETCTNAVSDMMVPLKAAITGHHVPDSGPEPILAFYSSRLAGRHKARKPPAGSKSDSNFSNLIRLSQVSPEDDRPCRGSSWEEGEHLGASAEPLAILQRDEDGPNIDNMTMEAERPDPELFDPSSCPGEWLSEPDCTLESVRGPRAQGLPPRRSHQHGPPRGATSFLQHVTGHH
Put plainly: Inhibition of human recombinant HIPK4 at 40 nM in presence of ATP by radiometric assay relative to control.

The target of experiment [5] is Serine/threonine-protein kinase N1 (Homo sapiens) (UniProt Q16512). Kind of experiment: Inhibition of human recombinant PKN1 at 40 nM related to control ULK1.
Experiment [6] addresses Ephrin type-A receptor 7 (Homo sapiens) (UniProt Q15375). Kind of experiment: Inhibition of human recombinant EphA7 at 40 nM in presence of ATP by radiometric assay relative to control.
Experiment [7] addresses T2, Serine/threonine-protein kinase DCLK3 (Homo sapiens) (UniProt Q9C098).
T2 sequence (whole entry): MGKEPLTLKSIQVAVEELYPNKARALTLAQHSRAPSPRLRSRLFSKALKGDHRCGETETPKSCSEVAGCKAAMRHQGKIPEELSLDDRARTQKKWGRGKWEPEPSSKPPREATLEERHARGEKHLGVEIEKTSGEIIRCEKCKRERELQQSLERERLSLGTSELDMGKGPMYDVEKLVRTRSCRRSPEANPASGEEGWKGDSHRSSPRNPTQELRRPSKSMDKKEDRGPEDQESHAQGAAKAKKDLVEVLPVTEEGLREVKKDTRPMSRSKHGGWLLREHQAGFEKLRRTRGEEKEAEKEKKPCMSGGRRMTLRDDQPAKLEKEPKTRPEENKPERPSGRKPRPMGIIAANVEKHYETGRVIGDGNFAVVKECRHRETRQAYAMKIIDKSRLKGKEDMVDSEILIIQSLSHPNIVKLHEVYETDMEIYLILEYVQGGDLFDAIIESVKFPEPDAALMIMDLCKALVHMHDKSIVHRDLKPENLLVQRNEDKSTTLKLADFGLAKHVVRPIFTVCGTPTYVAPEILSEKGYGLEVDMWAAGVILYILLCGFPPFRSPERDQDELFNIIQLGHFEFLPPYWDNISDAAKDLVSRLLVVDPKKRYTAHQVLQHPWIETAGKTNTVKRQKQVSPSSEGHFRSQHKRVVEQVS
Kind of experiment: Inhibition of human recombinant DCAMKL3 at 500 nM related to control ULK1.

In experiment [8] the target is Vascular endothelial growth factor receptor 2 (Homo sapiens) (UniProt P35968). Kind of experiment: Inhibition of human recombinant KDR at 500 nM in presence of ATP by radiometric assay relative to control.
The target of experiment [9] is Mitogen-activated protein kinase 9 (Homo sapiens) (UniProt P45984). Kind of experiment: Inhibition of human recombinant JNK2 at 500 nM related to control ULK1.
Mitogen-activated protein kinase 9 (Homo sapiens), sequence (P45984 whole entry, looked up): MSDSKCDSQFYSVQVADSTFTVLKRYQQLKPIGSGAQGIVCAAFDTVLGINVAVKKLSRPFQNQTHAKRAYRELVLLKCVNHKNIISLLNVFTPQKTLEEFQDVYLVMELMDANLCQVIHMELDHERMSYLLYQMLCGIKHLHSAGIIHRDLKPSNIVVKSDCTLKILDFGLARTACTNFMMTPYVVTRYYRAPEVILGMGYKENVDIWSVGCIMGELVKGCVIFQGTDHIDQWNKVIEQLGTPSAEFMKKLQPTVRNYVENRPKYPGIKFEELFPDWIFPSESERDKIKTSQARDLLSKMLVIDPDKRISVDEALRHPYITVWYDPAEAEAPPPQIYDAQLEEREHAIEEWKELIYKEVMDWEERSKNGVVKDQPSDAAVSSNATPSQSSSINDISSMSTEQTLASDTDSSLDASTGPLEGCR
For experiment [10], the target named is Protein kinase C iota type (Homo sapiens) (UniProt P41743). Put plainly: Inhibition of human recombinant PKCi at 500 nM related to control ULK1.
Protein kinase C iota type (Homo sapiens), sequence (P41743 whole entry, looked up): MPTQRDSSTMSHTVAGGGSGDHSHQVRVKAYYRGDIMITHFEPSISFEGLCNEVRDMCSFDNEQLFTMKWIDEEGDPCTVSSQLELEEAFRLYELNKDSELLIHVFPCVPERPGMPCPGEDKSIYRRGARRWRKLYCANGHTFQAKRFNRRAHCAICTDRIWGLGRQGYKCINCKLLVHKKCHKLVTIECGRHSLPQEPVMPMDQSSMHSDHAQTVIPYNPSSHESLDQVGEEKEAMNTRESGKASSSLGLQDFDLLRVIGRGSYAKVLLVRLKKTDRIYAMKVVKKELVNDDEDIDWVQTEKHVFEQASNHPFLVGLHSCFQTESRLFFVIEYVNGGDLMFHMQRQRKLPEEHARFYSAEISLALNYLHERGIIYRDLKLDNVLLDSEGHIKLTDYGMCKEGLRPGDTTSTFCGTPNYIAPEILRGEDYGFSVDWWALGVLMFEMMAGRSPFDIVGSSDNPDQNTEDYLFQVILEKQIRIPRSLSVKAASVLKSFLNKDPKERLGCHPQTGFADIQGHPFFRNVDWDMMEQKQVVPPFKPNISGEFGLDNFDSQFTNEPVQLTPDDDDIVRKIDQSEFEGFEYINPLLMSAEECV
Experiment [11] addresses Ephrin type-A receptor 2 (Homo sapiens) (UniProt P29317). Kind of experiment: Inhibition of human recombinant EphA2 at 500 nM related to control ULK1.
In experiment [12] the target is Misshapen-like kinase 1 (Homo sapiens) (UniProt Q8N4C8). Kind of experiment: Inhibition of human recombinant MINK at 500 nM related to control ULK1.
Misshapen-like kinase 1 (Homo sapiens), sequence (Q8N4C8 whole entry, looked up): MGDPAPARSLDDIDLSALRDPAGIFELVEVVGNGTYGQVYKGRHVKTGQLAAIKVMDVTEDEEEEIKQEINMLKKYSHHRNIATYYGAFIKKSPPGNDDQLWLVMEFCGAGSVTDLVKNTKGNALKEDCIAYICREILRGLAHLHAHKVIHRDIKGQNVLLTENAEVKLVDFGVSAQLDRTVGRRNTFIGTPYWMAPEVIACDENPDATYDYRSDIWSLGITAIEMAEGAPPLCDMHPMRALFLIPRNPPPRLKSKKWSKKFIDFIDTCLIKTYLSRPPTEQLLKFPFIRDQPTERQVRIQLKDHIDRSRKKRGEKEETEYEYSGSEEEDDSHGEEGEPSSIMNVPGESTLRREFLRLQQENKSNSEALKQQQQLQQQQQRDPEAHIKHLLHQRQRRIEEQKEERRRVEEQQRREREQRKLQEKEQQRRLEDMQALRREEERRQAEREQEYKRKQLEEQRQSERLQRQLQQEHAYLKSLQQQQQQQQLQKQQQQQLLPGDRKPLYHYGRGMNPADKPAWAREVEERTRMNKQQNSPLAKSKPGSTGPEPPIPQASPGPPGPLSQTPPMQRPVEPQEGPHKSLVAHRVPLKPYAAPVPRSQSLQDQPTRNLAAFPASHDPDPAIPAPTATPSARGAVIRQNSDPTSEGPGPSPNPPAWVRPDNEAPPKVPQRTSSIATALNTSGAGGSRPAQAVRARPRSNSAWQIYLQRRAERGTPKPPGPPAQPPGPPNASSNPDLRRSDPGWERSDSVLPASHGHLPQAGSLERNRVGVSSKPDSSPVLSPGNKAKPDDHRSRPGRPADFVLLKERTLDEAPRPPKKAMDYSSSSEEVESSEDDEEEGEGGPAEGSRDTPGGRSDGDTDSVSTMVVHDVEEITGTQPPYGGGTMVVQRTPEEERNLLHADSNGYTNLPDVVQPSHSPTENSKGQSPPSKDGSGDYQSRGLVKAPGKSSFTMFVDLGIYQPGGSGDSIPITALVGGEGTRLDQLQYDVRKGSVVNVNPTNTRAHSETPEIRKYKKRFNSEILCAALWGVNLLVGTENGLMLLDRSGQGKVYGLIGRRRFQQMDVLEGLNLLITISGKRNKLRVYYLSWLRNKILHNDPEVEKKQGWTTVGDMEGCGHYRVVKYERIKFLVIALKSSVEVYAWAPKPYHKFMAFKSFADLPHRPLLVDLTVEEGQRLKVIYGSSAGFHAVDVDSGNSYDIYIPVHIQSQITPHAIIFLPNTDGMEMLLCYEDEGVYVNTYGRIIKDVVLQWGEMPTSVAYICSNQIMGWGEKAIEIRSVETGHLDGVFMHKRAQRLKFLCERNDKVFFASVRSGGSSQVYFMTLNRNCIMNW
In experiment [13] the target is T3, Tribbles homolog 2 (Homo sapiens) (UniProt Q92519).
T3 sequence (whole entry): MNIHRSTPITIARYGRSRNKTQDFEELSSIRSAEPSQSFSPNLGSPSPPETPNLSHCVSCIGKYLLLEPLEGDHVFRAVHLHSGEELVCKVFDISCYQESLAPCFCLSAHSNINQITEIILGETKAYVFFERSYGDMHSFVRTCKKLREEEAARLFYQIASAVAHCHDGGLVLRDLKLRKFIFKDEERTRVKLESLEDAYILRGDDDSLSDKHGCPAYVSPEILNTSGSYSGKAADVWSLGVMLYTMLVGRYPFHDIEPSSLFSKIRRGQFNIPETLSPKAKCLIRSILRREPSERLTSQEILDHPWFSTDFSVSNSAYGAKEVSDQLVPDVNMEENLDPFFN
Put plainly: Inhibition of human recombinant Trb2 at 500 nM in presence of ATP by radiometric assay relative to control.

Experiment [14] concerns the target Bone morphogenetic protein receptor type-1B (Homo sapiens) (UniProt O00238). Put plainly: Inhibition of human recombinant BMPR1B at 15 nM related to control ULK1.
The target in experiment [15] is TGF-beta receptor type-2 (Homo sapiens) (UniProt P37173). Kind of experiment: Inhibition of human recombinant TGFbR2 at 15 nM related to control ULK1.
TGF-beta receptor type-2 (Homo sapiens), sequence (P37173 whole entry): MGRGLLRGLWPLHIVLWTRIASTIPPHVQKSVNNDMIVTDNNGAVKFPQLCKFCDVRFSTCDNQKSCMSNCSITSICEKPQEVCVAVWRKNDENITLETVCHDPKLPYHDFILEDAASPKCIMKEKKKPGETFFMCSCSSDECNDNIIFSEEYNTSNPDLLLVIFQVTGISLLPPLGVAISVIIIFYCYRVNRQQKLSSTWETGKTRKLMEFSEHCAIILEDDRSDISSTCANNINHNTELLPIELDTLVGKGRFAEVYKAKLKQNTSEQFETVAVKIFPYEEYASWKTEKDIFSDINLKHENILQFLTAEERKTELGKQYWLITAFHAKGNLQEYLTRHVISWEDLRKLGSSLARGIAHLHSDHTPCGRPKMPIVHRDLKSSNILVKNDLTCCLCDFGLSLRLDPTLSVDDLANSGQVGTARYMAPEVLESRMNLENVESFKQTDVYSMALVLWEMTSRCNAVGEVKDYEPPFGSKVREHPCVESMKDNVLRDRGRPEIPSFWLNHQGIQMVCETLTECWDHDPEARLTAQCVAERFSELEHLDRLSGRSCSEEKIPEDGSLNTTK
The target of experiment [16] is Serine/threonine-protein kinase PAK 2 (Homo sapiens) (UniProt Q13177). Put plainly: Inhibition of human recombinant PAK2 at 15 nM related to control ULK1.
The target in experiment [17] is Cyclin-dependent kinase 1 (Homo sapiens) (UniProt P06493). Put plainly: Inhibition of human recombinant CDC2 at 15 nM related to control ULK1.
Cyclin-dependent kinase 1 (Homo sapiens), sequence (P06493 whole entry, looked up): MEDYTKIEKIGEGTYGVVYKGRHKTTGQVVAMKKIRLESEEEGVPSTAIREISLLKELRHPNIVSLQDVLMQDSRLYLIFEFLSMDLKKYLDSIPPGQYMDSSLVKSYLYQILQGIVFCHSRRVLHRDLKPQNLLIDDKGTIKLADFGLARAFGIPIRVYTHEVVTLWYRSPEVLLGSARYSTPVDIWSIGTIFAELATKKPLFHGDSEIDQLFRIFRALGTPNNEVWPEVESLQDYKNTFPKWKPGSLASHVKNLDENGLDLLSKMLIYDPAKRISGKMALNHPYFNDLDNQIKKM
Experiment [18] addresses Interleukin-1 receptor-associated kinase 1 (Homo sapiens) (UniProt P51617). Put plainly: Inhibition of human recombinant IRAK1 at 15 nM in presence of ATP by radiometric assay relative to control.
Experiment [19] has as its target TGF-beta receptor type-2 (Homo sapiens) (UniProt P37173). Put plainly: Inhibition of human recombinant TGFbR2 at 15 nM in presence of ATP by radiometric assay relative to control.

Eukaryotic translation initiation factor 2-alpha kinase 1 (Homo sapiens), sequence (Q9BQI3 whole entry): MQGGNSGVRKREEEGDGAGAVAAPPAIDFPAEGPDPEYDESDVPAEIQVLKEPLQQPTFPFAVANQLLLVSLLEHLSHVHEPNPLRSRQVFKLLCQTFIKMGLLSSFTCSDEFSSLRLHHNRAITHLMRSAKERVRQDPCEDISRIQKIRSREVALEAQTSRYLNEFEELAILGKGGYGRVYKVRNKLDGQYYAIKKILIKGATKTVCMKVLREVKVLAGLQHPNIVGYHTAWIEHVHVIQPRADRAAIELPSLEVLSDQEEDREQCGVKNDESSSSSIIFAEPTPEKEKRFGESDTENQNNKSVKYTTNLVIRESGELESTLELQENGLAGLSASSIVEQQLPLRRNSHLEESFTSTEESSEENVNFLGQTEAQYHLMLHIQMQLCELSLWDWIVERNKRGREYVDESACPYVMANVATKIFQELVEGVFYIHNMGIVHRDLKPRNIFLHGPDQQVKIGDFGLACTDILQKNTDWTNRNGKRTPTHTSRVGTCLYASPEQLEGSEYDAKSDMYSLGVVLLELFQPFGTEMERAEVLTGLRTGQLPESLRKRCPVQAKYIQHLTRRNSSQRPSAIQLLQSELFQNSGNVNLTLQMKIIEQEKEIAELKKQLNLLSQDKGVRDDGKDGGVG

A word on the inhibition: it is the drop in the measured response relative to a control, in per cent. On to `O=C(N[C@@H](C1CC1)C(F)(F)F)c1cc(-c2cnn3cc(-c4ccc(F)cc4)cnc23)cs1`, for which the inhibition in experiment [1] is 0%; in experiment [3], 3%; in experiment [4], 0%; in [6] it was 0%. Moreover, the fold change (FC) in [2] was 0.01; in experiment [5], 0.

`CNC(=O)c1ccccc1Oc1nc(Nc2cc(OC)c(OC)c(OC)c2)ncc1Br`: the fold change (FC) in experiment [7] is 0; in [9] it was 0; in [10], 0; in experiment [11] it was 0.03; in [12], 0.05. Moreover, the inhibition in experiment [8] and in [13] was 0% in each case.

With `CC(C)[C@H](NC(=O)c1cc(-c2cnn3cc(-c4ccc(OCCN5CCCCC5)cc4)cnc23)cs1)C(F)(F)F`, the fold change (FC) in experiment [14] turned out to be 0.27; in [15] it was 0.48; in experiment [16], 0; in experiment [17], 0.27. The inhibition in experiment [18] was found to be 36%; in experiment [19], 42%.
